Values after ≈ are worked out from the molar mass of the structure shown. Active and inactive are the calls of the source. No cut-off for these calls is given here.
How the values were obtained:
Staphylococcus aureus [1] = experiment: Antibacterial activity against methicillin resistant Staphylococcus aureus clinical isolate by broth microdilution method; type: functional
Staphylococcus aureus [2] = experiment: Antibacterial activity against methicillin resistant Staphylococcus aureus clinical isolate assessed as susceptibility level by broth microdilution method; type: functional
Staphylococcus capitis [3] = experiment: Antibacterial activity against methicillin resistant coagulase-negative Staphylococcus capitis clinical isolate by broth microdilution method; type: functional
[4] = tested on: Staphylococcus hominis subsp. novobiosepticus; experiment: (§1) Antibacterial activity against methicillin resistant coagulase-negative Staphylococcus hominis subsp. novobiosepticus clinical isolate assessed as susceptibility level by broth microdilution method; type: functional
[5] = tested on: Staphylococcus saprophyticus; experiment: Antibacterial activity against methicillin resistant coagulase-negative Staphylococcus saprophyticus clinical isolate by broth microdilution method; type: functional
[6] = tested on: Staphylococcus saprophyticus; experiment: Antibacterial activity against methicillin resistant coagulase-negative Staphylococcus saprophyticus clinical isolate assessed as susceptibility level by broth microdilution method; type: functional
[7] = tested on: Staphylococcus haemolyticus; experiment: Antibacterial activity against methicillin resistant coagulase-negative Staphylococcus haemolyticus clinical isolate assessed as susceptibility level by broth microdilution method; type: functional
Staphylococcus capitis [8] = experiment: Antibacterial activity against methicillin resistant coagulase-negative Staphylococcus capitis clinical isolate assessed as susceptibility level by broth microdilution method; type: functional
[9] = tested on: Staphylococcus epidermidis; experiment: Antibacterial activity against methicillin resistant Staphylococcus epidermidis clinical isolate by broth microdilution method; type: functional
[10] = tested on: Staphylococcus auricularis; experiment: Antibacterial activity against methicillin resistant coagulase-negative Staphylococcus auricularis clinical isolate assessed as susceptibility level by broth microdilution method; type: functional
[11] = tested on: Staphylococcus haemolyticus; experiment: Antibacterial activity against methicillin resistant coagulase-negative Staphylococcus haemolyticus clinical isolate by broth microdilution method; type: functional
[12] = tested on: Staphylococcus auricularis; experiment: Antibacterial activity against methicillin resistant coagulase-negative Staphylococcus auricularis clinical isolate by broth microdilution method; type: functional
[13] = tested on: Staphylococcus hominis subsp. novobiosepticus; experiment: (§2) Antibacterial activity against methicillin resistant coagulase-negative Staphylococcus hominis subsp. novobiosepticus clinical isolate by broth microdilution method; type: functional
[14] = tested on: Staphylococcus epidermidis; experiment: Antibacterial activity against methicillin resistant Staphylococcus epidermidis clinical isolate assessed as susceptibility level by broth microdilution method; type: functional
Streptococcus agalactiae [15] = experiment: Antibacterial activity against Streptococcus agalactiae MED 2038 by broth microdilution method; type: functional
Streptococcus mitis [16] = experiment: Antibacterial activity against Streptococcus mitis clinical isolate by broth microdilution method; type: functional
Streptococcus pyogenes [17] = experiment: Antibacterial activity against Streptococcus pyogenes group A clinical isolate by broth microdilution method; type: functional
[18] = tested on: Streptococcus intermedius; experiment: Antibacterial activity against Streptococcus intermedius clinical isolate assessed as susceptibility level by broth microdilution method; type: functional
Enterococcus faecium [19] = experiment: Antibacterial activity against vancomycin resistant Enterococcus faecium VanA clinical isolate by broth microdilution method; type: functional
[20] = as §1; type: functional
Streptococcus pneumoniae [21] = experiment: Antibacterial activity against penicillin intermediate Streptococcus pneumoniae clinical isolate by broth microdilution method; type: functional
[22] = tested on: Streptococcus constellatus; experiment: Antibacterial activity against Streptococcus constellatus clinical isolate assessed as susceptibility level by broth microdilution method; type: functional
Enterococcus faecalis [23] = tested on: Enterococcus faecalis
Enterococcus faecium [24] = experiment: Antibacterial activity against vancomycin resistant Enterococcus faecium VanB clinical isolate by broth microdilution method; type: functional
Streptococcus agalactiae [25] = experiment: Antibacterial activity against Streptococcus agalactiae group B clinical isolate assessed as susceptibility level by broth microdilution method; type: functional
Streptococcus agalactiae [26] = experiment: Antibacterial activity against Streptococcus agalactiae group B clinical isolate by broth microdilution method; type: functional
Streptococcus oralis [27] = experiment: Antibacterial activity against Streptococcus oralis clinical isolate assessed as susceptibility level by broth microdilution method; type: functional
Streptococcus pneumoniae [28] = experiment: Antibacterial activity against penicillin intermediate Streptococcus pneumoniae clinical isolate assessed as susceptibility level by broth microdilution method; type: functional
Streptococcus pneumoniae [29] = experiment: Antibacterial activity against multidrug-resistant Streptococcus pneumoniae clinical isolate assessed as susceptibility level by broth microdilution method; type: functional
Streptococcus pyogenes [30] = experiment: Antibacterial activity against Streptococcus pyogenes group A clinical isolate assessed as susceptibility level by broth microdilution method; type: functional
Streptococcus mitis [31] = experiment: Antibacterial activity against Streptococcus mitis clinical isolate assessed as susceptibility level by broth microdilution method; type: functional
Streptococcus viridans [32] = experiment: Antibacterial activity against Streptococcus viridans clinical isolate by broth microdilution method; type: functional
Streptococcus pneumoniae [33] = experiment: Antibacterial activity against multidrug-resistant Streptococcus pneumoniae clinical isolate by broth microdilution method; type: functional
Streptococcus pneumoniae [34] = experiment: Antibacterial activity against multidrug resistant Streptococcus pneumoniae MED 1090 by broth microdilution method; type: functional
Enterococcus faecalis [35] = experiment: Antibacterial activity against vancomycin resistant Enterococcus faecalis VanA clinical isolate assessed as susceptibility level by broth microdilution method; type: functional
[36] = tested on: Streptococcus intermedius; experiment: Antibacterial activity against Streptococcus intermedius clinical isolate by broth microdilution method; type: functional
Streptococcus viridans [37] = experiment: Antibacterial activity against Streptococcus viridans clinical isolate assessed as susceptibility level by broth microdilution method; type: functional
Streptococcus pneumoniae [38] = experiment: Antibacterial activity against penicillin resistant Streptococcus pneumoniae clinical isolate by broth microdilution method; type: functional
Enterococcus faecalis [39] = experiment: Antibacterial activity against vancomycin resistant Enterococcus faecalis VanB clinical isolate by broth microdilution method; type: functional
Enterococcus faecalis [40] = experiment: Antibacterial activity against vancomycin resistant Enterococcus faecalis VanB clinical isolate assessed as susceptibility level by broth microdilution method; type: functional
Enterococcus faecalis [41] = experiment: Antibacterial activity against vancomycin resistant Enterococcus faecalis VanA clinical isolate by broth microdilution method; type: functional
Streptococcus pneumoniae [42] = experiment: Antibacterial activity against penicillin resistant Streptococcus pneumoniae clinical isolate assessed as susceptibility level by broth microdilution method; type: functional
Enterococcus faecium [43] = experiment: Antibacterial activity against vancomycin resistant Enterococcus faecium VanB clinical isolate assessed as susceptibility level by broth microdilution method; type: functional
Streptococcus pyogenes [44] = experiment: Antibacterial activity against Streptococcus pyogenes MED 2040 by broth microdilution method; type: functional
Streptococcus oralis [45] = experiment: Antibacterial activity against Streptococcus oralis clinical isolate by broth microdilution method; type: functional
[46] = as §2; type: functional
[47] = tested on: Streptococcus constellatus; experiment: Antibacterial activity against Streptococcus constellatus clinical isolate by broth microdilution method; type: functional
Enterococcus faecium [48] = experiment: Antibacterial activity against vancomycin resistant Enterococcus faecium VanA clinical isolate assessed as susceptibility level by broth microdilution method; type: functional

## GENTAMICIN
Staphylococcus aureus [1]
  Activity: 97%
  MIC50: 0.5 µg/mL
  MIC90: 2 µg/mL
Staphylococcus aureus [2]
  Activity: 97%
Staphylococcus capitis [3]
  MIC50: 16 µg/mL
  MIC90: > 16 µg/mL
[4]
  Activity: 29%
[5]
  MIC50: 16 µg/mL
  MIC90: > 16 µg/mL
[6]
  Activity: 29%
[7]
  Activity: 29%
Staphylococcus capitis [8]
  Activity: 29%
[9]
  MIC50: 16 µg/mL
  MIC90: > 16 µg/mL
[10]
  Activity: 29%
[11]
  MIC50: 16 µg/mL
  MIC90: > 16 µg/mL
[12]
  MIC50: 16 µg/mL
  MIC90: > 16 µg/mL
[13]
  MIC50: 16 µg/mL
  MIC90: > 16 µg/mL
[14]
  Activity: 35%

## CN[C@H](CC(C)C)C(=O)N[C@H]1C(=O)N[C@@H](CC(N)=O)C(=O)N[C@H]2C(=O)N[C@H]3C(=O)N[C@H](C(=O)N[C@H](C(=O)O)c4cc(O)cc(O)c4-c4cc3ccc4O)[C@H](O)c3ccc(c(Cl)c3)Oc3cc2cc(c3O[C@@H]2O[C@H](CO)[C@@H](O)[C@H](O)[C@H]2O[C@H]2C[C@](C)(N)[C@H](O)[C@H](C)O2)Oc2ccc(cc2Cl)[C@H]1O [VANCOMYCIN]
Streptococcus agalactiae [15]
  MIC: 0.25 µg/mL (≈ 0.173 µM)
Streptococcus mitis [16]
  MIC: 0.25 µg/mL (≈ 0.173 µM)
  MIC50: inactive
  MIC90: inactive
Streptococcus pyogenes [17]
  MIC50: 0.25 µg/mL (≈ 0.173 µM)
  MIC90: 0.5 µg/mL (≈ 0.345 µM)
[18]
  Activity: 100%
Staphylococcus aureus [1]
  Activity: 100%
Staphylococcus aureus [1]; Staphylococcus aureus
  MIC50: 0.5 µg/mL (≈ 0.345 µM)
  MIC90: 1 µg/mL (≈ 0.69 µM)
Staphylococcus aureus [2]
  Activity: 100%
Enterococcus faecium [19]
  MIC50: 512 µg/mL (≈ 353 µM)
  MIC90: > 512 µg/mL
Staphylococcus capitis [3]
  MIC50: 2 µg/mL (≈ 1.38 µM)
  MIC90: 2 µg/mL (≈ 1.38 µM)
[20]
  Activity: 100%
Streptococcus pneumoniae [21]
  MIC50: 0.5 µg/mL (≈ 0.345 µM)
  MIC90: 0.5 µg/mL (≈ 0.345 µM)
[22]
  Activity: 100%
Enterococcus faecalis [23]
  MIC50: inactive
  MIC90: inactive
[5]
  MIC50: 2 µg/mL (≈ 1.38 µM)
  MIC90: 2 µg/mL (≈ 1.38 µM)
[6]
  Activity: 100%
Enterococcus faecium [24]
  MIC50: 512 µg/mL (≈ 353 µM)
  MIC90: > 512 µg/mL
Streptococcus agalactiae [25]
  Activity: 100%
Streptococcus agalactiae [26]
  MIC: 0.25 µg/mL (≈ 0.173 µM)
  MIC50: 0.25 µg/mL (≈ 0.173 µM)
  MIC90: 0.5 µg/mL (≈ 0.345 µM)
Streptococcus oralis [27]
  Activity: 100%
Streptococcus pneumoniae [28]
  Activity: 100%
[7]
  Activity: 100%
Streptococcus pneumoniae [29]
  Activity: 100%
Streptococcus pyogenes [30]
  Activity: 98%
Staphylococcus capitis [8]
  Activity: 100%
Streptococcus mitis [31]
  Activity: 100%
Streptococcus viridans [32]
  MIC: 0.25 µg/mL (≈ 0.173 µM)
  MIC50: inactive
  MIC90: inactive
[9]
  MIC: 0.5 µg/mL (≈ 0.345 µM)
Streptococcus pneumoniae [33]
  MIC50: 0.25 µg/mL (≈ 0.173 µM)
  MIC90: 0.25 µg/mL (≈ 0.173 µM)
Streptococcus pneumoniae [34]
  MIC: 0.25 µg/mL (≈ 0.173 µM)
Enterococcus faecalis [35]
  Percent of isolates susceptible: 0%
[36]
  MIC: 0.25 µg/mL (≈ 0.173 µM)
  MIC50: inactive
  MIC90: inactive
[10]
  Activity: 100%
Streptococcus viridans [37]
  Activity: 100%
Streptococcus pneumoniae [38]
  MIC50: 0.25 µg/mL (≈ 0.173 µM)
  MIC90: 0.25 µg/mL (≈ 0.173 µM)
Enterococcus faecalis [39]
  MIC: 32 µg/mL (≈ 22.1 µM)
Enterococcus faecalis [40]
  Activity: 0%
[11]
  MIC50: 2 µg/mL (≈ 1.38 µM)
  MIC90: 2 µg/mL (≈ 1.38 µM)
Enterococcus faecalis [41]
  MIC50: 512 µg/mL (≈ 353 µM)
  MIC90: > 512 µg/mL
[12]
  MIC50: 2 µg/mL (≈ 1.38 µM)
  MIC90: 2 µg/mL (≈ 1.38 µM)
Streptococcus pneumoniae [42]
  Activity: 100%
Enterococcus faecium [43]
  Activity: 0%
Streptococcus pyogenes [44]
  MIC: 0.25 µg/mL (≈ 0.173 µM)
Streptococcus oralis [45]
  MIC: 0.25 µg/mL (≈ 0.173 µM)
  MIC50: inactive
  MIC90: inactive
[46]
  MIC50: 2 µg/mL (≈ 1.38 µM)
  MIC90: 2 µg/mL (≈ 1.38 µM)
[14]
  Activity: 100%
[47]
  MIC: 0.25 µg/mL (≈ 0.173 µM)
  MIC50: inactive
  MIC90: inactive
Enterococcus faecium [48]
  Activity: 0%
